Here are results for two molecules from patent US20240376142A1, “A-SALIDROSIDE, METHOD FOR PREPARING SAME, AND APPLICATION THEREOF” (SHANDONG HENGLU BIOTECH. CO., LTD., priority 2021, published 2024).

Assay [1] in a line: Hydroxyl radical scavenging experiment (Fenton reaction, 1,10-phenanthroline spectrophotometry). It counts as biochemical. Conditions: for Hydroxyl Radical Scavenging Rate: 37° C., 30 minutes, 536 nm. An excerpt: The Hydroxyl Radical Scavenging Activity is an important indicator for measuring the antioxidant capacity of substances. Currently, the main analytical testing methods for hydroxyl radicals include High Performance Liquid Chromatography, Chemiluminescence, Fluorescence Analysis, and Spectrophotometry, etc. Among them, the most commonly used method for measuring the hydroxyl radical scavenging activity is Spectrophotometry, which can be used to determine the inhibition of the absorbance decline of the colorant 1,10-Phenanthroline by the sample, thereby reflecting the ability of the sample to scavenge hydroxyl radicals. The measurement principle is as follows: H2O2/Fe^2+ produces hydroxyl radicals through the Fenton reaction, oxidizing Fe^2+ in the 1,10-Phenanthroline-Fe^2+ aqueous solution to Fe^3+, leading to a decline in the absorbance at 536 nm. The degree to which the sample inhibits the rate of absorbance decline at 536 nm reflects the ability of the sample to scavenge hydroxyl radicals.
• (1) FeSO4 Solution: 1.5 mM and 5 mM FeSO4 aqueous solutions were prepared using conventional methods. • (2) PBS Buffer: • 1) 0.2 mol/L sodium dihydrogen phosphate and 0.2 mol/L disodium hydrogen phosphate aqueous solutions were prepared. • 2) 19 mL of sodium dihydrogen phosphate aqueous solution and 81 mL of disodium hydrogen phosphate aqueous solution were taken, mixed well, and the pH was adjusted to 7.4 (measured with a pH meter, and the pH value was adjusted with 0.1 mol/L sodium hydroxide or 0.1 mol/L phosphoric acid if necessary). • (3) 1,10-Phenanthroline: 0.75 mM and 3 mM aqueous solutions were prepared using conventional methods. • (4) Hydrogen Peroxide (H2O2) Solution: 0.1% (v/v) aqueous solution was prepared using conventional methods. • (5) α-salidroside Solution: 1 mg/mL and 4 mg/mL aqueous solutions were prepared using conventional methods. • (6) β-salidroside Solution: 1 mg/mL and 4 mg/mL aqueous solutions were prepared using conventional methods.
Scheme 1: Using 5 mM FeSO4 aqueous solution, 0.1% hydrogen peroxide, 1 mg/mL α-salidroside aqueous solution or 1 mg/mL β-salidroside aqueous solution, and 3 mM 1,10-Phenanthroline aqueous solution, the following operation steps were carried out for the reaction.
Scheme 2: Using 1.5 mM FeSO4 aqueous solution, 0.1% hydrogen peroxide, 4 mg/mL α-salidroside aqueous solution or 4 mg/mL β-salidroside aqueous solution, and 0.75 mM 1,10-Phenanthroline aqueous solution, the following operation steps were carried out for the reaction.
Specific Operation Steps: (1) 40 μL of α-salidroside solution or β-salidroside solution was taken separately, to which 40 μL of FeSO4 solution, 60 μL of PBS buffer solution (pH 7.4), and 40 μL of 1,10-Phenanthroline solution were added respectively, mixed well. Then, 40 μL of H2O2 solution was added and mixed well again. […] Using distilled water as blank, the absorbance at 536 nm wavelength was measured and the average of three parallels was calculated and noted as Ai.
(2) 80 μL of distilled water was taken, to which 40 μL of FeSO4 solution, 60 μL of PBS buffer solution (pH 7.4), and 40 μL of 1,10-Phenanthroline solution were added and mixed well. […] Using distilled water as blank, the absorbance at 536 nm wavelength was measured and the average of three parallels was calculated and noted as Aj. […] Using distilled water as blank, the absorbance at 536 nm wavelength was measured and the average of three parallels was calculated and noted as A0.

A short description of assay [2]: DPPH radical scavenging experiment. The format is biochemical. Conditions: for DPPH Radical Scavenging Rate: 500 mg/L aqueous sample solution mixed 1:1 with 0.04 mg/ml DPPH ethanol solution, dark, 517 nm. An excerpt: Free radicals play a significant role, either directly or indirectly, in oxidative processes and are widely involved in the physiological and pathological processes of the body. When the body has an excess of free radicals, the body damage can be caused by free radicals through oxidative actions. Phenolic compounds, being donors of phenolic hydroxyl groups, form the structural basis for antioxidant activity. This experiment employs the DPPH [1,1-Diphenyl-2-trinitrophenyl hydrazine, also known as 1,1-Diphenyl-2-picrylhydrazyl, (free radical)] radical scavenging reaction to study the scavenging efficiency of α-salidroside and β-salidroside on DPPH radicals. • (1) α-salidroside solution: prepared as a 500 mg/L aqueous solution using conventional methods. • (2) β-salidroside solution: prepared as a 500 mg/L aqueous solution using conventional methods. • (3) DPPH ethanol solution: prepared as a 0.04 mg/ml solution in anhydrous ethanol using conventional methods. • (1) 0.9 mL each of α-salidroside solution and β-salidroside aqueous solution were taken separately, and 0.9 mL of DPPH anhydrous ethanol solution was added to each, mixed well, and then left to stand in the dark. Samples were taken at 0.5 h, 1 h, 2 h, and 4 h respectively, and the absorbance was measured at a wavelength of 517 nm. The average of three parallels was calculated and noted as Ai. • (2) 0.9 mL each of α-salidroside solution and β-salidroside aqueous solution were taken separately, and 0.9 mL of anhydrous ethanol was added to each, mixed well, and then left to stand in the dark […]. Samples were taken at 0.5 h, 1 h, 2 h, and 4 h respectively, and the absorbance was measured at a wavelength of 517 nm. The average of three parallels was calculated and noted as Aj. • (3) 0.9 mL of distilled water was taken, to which 0.9 mL of DPPH ethanol solution was added, mixed well, and the absorbance was measured at a wavelength of 517 nm. The average of three parallels was calculated and noted as A4. • (4) 0.9 mL of anhydrous ethanol was taken, to which 0.9 mL of distilled water was added, mixed well, and was used as a blank. The DPPH radical scavenging rate was calculated according to the formula below, and the results were recorded in Table 3. [formula]

[3] abbreviates: Scheme 1: 1 mg/mL sample solution, 5 mM FeSO4, 0.1% hydrogen peroxide, 3 mM 1,10-Phenanthroline.
The mark [4] stands for this setting: Scheme 2: 4 mg/mL sample solution, 1.5 mM FeSO4, 0.1% hydrogen peroxide, 0.75 mM 1,10-Phenanthroline.

On to `OC[C@H]1O[C@H](OCCc2ccc(O)cc2)[C@H](O)[C@@H](O)[C@@H]1O` [α-salidroside, 2-(4-hydroxyphenyl) ethyl-α-D-glucopyranoside], for which the “Hydroxyl Radical Scavenging Rate” value in assay [1] (setting [3]) is given as 28.69%; in assay [1] (setting [4]), 21.62%. Besides, the “capability in scavenging hydroxyl radicals compared to β-salidroside” value in assay [1] (in words, from Table 4, both schemes) is given as “far superior to that of β-salidroside”. Also, the “DPPH Radical Scavenging Rate” value in assay [2] (0.5 h) is recorded as 19.29%; in assay [2] (1 h) it was 28.45%; in assay [2] (2 h), 31.00%; in assay [2] (4 h) it was 34.12%. Also, in assay [2] (in words, from Table 3, especially when the reaction time is over 1 hour), the “capability of scavenging DPPH radicals compared to β-salidroside” value was “higher capability of scavenging DPPH radicals compared to β-salidroside”.
`OC[C@H]1O[C@@H](OCCc2ccc(O)cc2)[C@H](O)[C@@H](O)[C@@H]1O` [β-salidroside, reference compound]: the entries for the “Hydroxyl Radical Scavenging Rate” value in assay [1] (setting [3]) and in assay [1] (setting [4]) were 13.92% and 4.05%, respectively. Further, the “DPPH Radical Scavenging Rate” value in assay [2] (0.5 h) came out at 19.96%; in assay [2] (1 h), 23.21%; in assay [2] (2 h), 28.24%; in assay [2] (4 h) it was 28.33%.
